Laboratory results from patent US11958829B1, “3-(4,5-diphenyl-2-(pyridin-3-YL)-1H-imidazol-1-YL)-N,N-dimethylpopan-1-amine as an antimicrobial compound” (KING FAISAL UNIVERSITY, priority 2023, dated 2024).

Key:
[1] = test system: Candida albicans; experiment: Anti-microbial screening, agar dilution; assay type: cell-based; settings: after 10, 20, 40 and 60 minutes at all dilutions, 1:100, 1:200, 1:400, and 1:800
Procedure: (§1) The antibacterial properties of the present compound were studied by the method of agar dilution. Test solutions of the compound were prepared in a concentration of 1% using dimethylformamide as a solvent then they are diluted in physiological solution to obtain the final experimental dilutions 1:100, 1:200, 1:400, and 1:800. The effect of these substances were compared with furacillin in a controllable study. The testing microbes used were gram positive bacteria St. Aereus, gram negative bacteria E. Coli, Ps. aeruginosa and Candida albicans fungi were taken. The experiments used for this survey were meat-pentonlu agar (EPA) for cultivation of bacteria and Saburo environment for fungi. Each experiment used 1 ml of test solution on each plate 500 min. Add 2 drops of emulsified with microbes feel. All experimental samples were taken from the agar after 10, 20, 40, and 60 minutes in the environment on the basis of Patrk planted. Bacteria were cultivated at a temperature of 37° C. for 1 day and the mushroom was kept in a thermostat for […] at a temperature of 28° C. Then results were checked.

[2] = test system: E. Coli; experiment: Anti-microbial screening, agar dilution; assay type: cell-based; settings: after 10, 20, 40 and 60 minutes at all dilutions, 1:100, 1:200, 1:400, and 1:800
Procedure: as §1

[3] = test system: St. Aereus; experiment: Anti-microbial screening, agar dilution; assay type: cell-based; settings: after 10, 20, 40 and 60 minutes at all dilutions, 1:100, 1:200, 1:400, and 1:800
Procedure: as §1

[4] = test system: Ps. Aeroqonaza; experiment: Anti-microbial screening, agar dilution; assay type: cell-based, Ps. aeruginosa; settings: after 10, 20, 40 and 60 minutes at all dilutions, 1:100, 1:200, 1:400, and 1:800
Procedure: as §1

melting point: 145 to 147 °C
Structure (SMILES): CN(C)CCCn1c(-c2cccnc2)nc(-c2ccccc2)c1-c1ccccc1 [3-(4,5-Diphenyl-2-(pyridin-3-yl)-1H-imidazol-1-yl)-N,N-dimethylpropan-1-amine]
inhibition activity, Candida albicans [1]: highest inhibition activity
inhibition activity, E. Coli [2]: highest inhibition activity
inhibition activity, St. Aereus [3]: highest inhibition activity
inhibition activity, Ps. aeruginosa [4]: highest inhibition activity
